Active and inactive are the calls of the source.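 How the source made its calls: active means IC50 at or below a set limit; inactive means the rest.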 A value given as a limit tells only on which side of the number the result lay.

The test system of this assay is HL-1 cardiomyocytes, 2-deoxyglucose injury, ATPLite luminescence, 2 h. Description: 2-DG-induced HL-1 ATP loss suppression – cell-based, ATPLite luminescence, dose response (AID 602217).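 Further: cells kept in glucose-free DMEM during the 2-deoxyglucose injury; potency of protection where actives preserve ATP signal against 2-deoxyglucose stress.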
Regarding `C=CCn1cnc2c(c1=O)c1nc3ccccc3nc1n2/N=C/c1cc(OC)c(OC)c(OC)c1`, the IC50 (in general, the concentration that gives 50% inhibition) was 5.93 µM.

Regarding `COc1ccc(-c2ccc3c(c2)S(=O)(=O)c2cccc(C(=O)NC[C@@H]4CCCO4)c2C3=O)cc1OC`, the IC50 was > 79 µM (inactive). In the case of `CCOc1cc(/C=C/c2ccc3cccc([N+](=O)[O-])c3n2)ccc1OCC(=O)N(C)C`, the IC50 is 40.3 µM (inactive). For the compound `O=C(CN(c1ccc2c(c1)OCCO2)S(=O)(=O)c1ccccc1)Nc1ccc2c(c1)OCO2`, the IC50 was > 79 µM (inactive). As for `Cc1ccc(C=NNc2nc3c([nH]2)c(=O)n(C)c(=O)n3C)cc1`, the IC50 is > 79 µM (inactive).

As for `COc1cc(-c2cc(NC(C)=O)c3ncc(-c4cc(OC)c(OC)c(OC)c4)n3c2)cc(OC)c1OC`, the IC50 is 6.4 µM.

With `COc1cc(-c2cc(NC=O)c3ncc(-c4ccc(C(C)=O)cc4)n3c2)cc(OC)c1OC`, the IC50 is > 79 µM (inactive).

As for `COc1ccccc1NC(=O)c1cc(-c2cc(OC)c(OC)c(OC)c2)nc2ccccc12`, the IC50 was 14.3 µM. On to `CCOc1cc(-c2cc(-c3ccc(N)cc3)nc(N)c2C#N)ccc1O`, for which the IC50 was > 79 µM (inactive). To `CS(=O)(=O)c1ccc(-c2cnc3c(NC=O)cc(-c4ccsc4)cn23)cc1` belongs > 79 µM (inactive); to `NC(=O)c1nsc(C(=O)N(c2ccccc2F)C(C(=O)NCc2ccc(F)cc2)c2ccc(O)cc2)c1N` (centres undefined), 9.17 µM; to `COc1cc(-c2cc3nc(NCCOc4ccccc4)ccn3n2)cc(OC)c1OC`, > 79 µM (inactive).

Take `O=C(COC(=O)c1c2c(nc3ccccc13)/C(=C/c1cccc([N+](=O)[O-])c1)CCC2)NC1CCS(=O)(=O)C1` (centres undefined): the IC50 is > 79 µM (inactive). Turning to `CCOc1ncccc1C(=O)Nc1cccc(-c2nc3cccnc3s2)c1`, the IC50 was > 79 µM (inactive). The result for `NC(=O)c1nsc(C(=O)N(Cc2ccco2)C(C(=O)NCc2ccccc2)c2ccc(O)cc2)c1N` (centres undefined) reads 32.2 µM (inactive); that for `O=C(c1ccc(-c2nc3ccccc3s2)o1)N1CCN(c2ccccc2O)CC1`, > 79 µM (inactive). For `COc1ccc(C(=O)O/N=C(/c2ccccc2)c2ccncc2)cc1OC`, the IC50 was > 79 µM (inactive).

On to `COc1ccc(-c2cc(C(=O)N(C)Cc3ccc(OC)c(OC)c3OC)c3ccccc3n2)cc1OC`, for which the IC50 is 32.1 µM (inactive). On to `COc1ccc(COc2cc(-c3cccc(OC)c3)nc3ccc(NC(=O)c4cccnc4)cc23)cc1`, for which the IC50 is 5.96 µM. The result for `COC(=O)c1[nH]c2ccccc2c1NC(=O)CNC1CCCCC1` reads 41 µM (inactive). Regarding `c1ccc(-c2nc(-n3ccnc3)nc(-n3ccnc3)n2)cc1`, the IC50 was 38 µM (inactive). Take `CC(C)(C)OC(=O)N1CCC(NC(=O)c2nc[nH]c2C(=O)NCC(=O)OCc2ccccc2)CC1`: the IC50 is 25.8 µM (inactive). To `COC(=O)c1cc2c(-c3ccccc3)cc3ccccn3c-2c1C(=O)OC` belongs > 79 µM (inactive); to `COc1cccc(-c2cnc3c(NC=O)cc(-c4cc(OC)c(OC)c(OC)c4)cn23)c1`, > 79 µM (inactive). Take `CC(C)OCCCNC(=O)CCC(=O)NNc1nc2ccccc2c2nc(-c3ccccc3)nn12`: the IC50 was > 79 µM (inactive). Turning to `COc1cc(-c2cc(C(=O)OCC(=O)NC3CC3)c3ccccc3n2)cc(OC)c1OC`, the IC50 is 47.4 µM (inactive). The result for `O=CNc1cc(-c2ccc(C(=O)NC3CC3)cc2)cn2c(-c3ccccc3)cnc12` reads 40.9 µM (inactive). To `O=C(Nc1ccccc1)c1nc[nH]c1C(=O)NCCCCCCNC(=O)c1[nH]cnc1C(=O)Nc1ccccc1` belongs > 79 µM (inactive). Consider `COc1ccc(-c2cc(NC=O)c3ncc(-c4ccc(C(C)=O)cc4)n3c2)cn1`, for which the IC50 was 22.2 µM (inactive).

Take `O=S(=O)(c1ccccc1)N1CCN(c2nc(-c3cccnc3)nc3ccccc23)CC1`: the IC50 was 51.6 µM (inactive).

In the case of `COc1cc(C(=O)N/N=C/c2ccc(OC(=O)c3ccccc3)c(OC)c2)ccc1O`, the IC50 is 37.6 µM (inactive). Consider `CC(=O)c1cccc(Nc2nc3ccccc3n3cnnc23)c1`, for which the IC50 is > 79 µM (inactive). To `C[C@H](NC(=O)c1nc[nH]c1C(=O)NCC(=O)OCc1ccccc1)c1ccccc1` belongs > 79 µM (inactive); to `Cc1cc(C)c(C)c(S(=O)(=O)N2CCN(C(=O)c3cc(=O)[nH]c4ccccc34)CC2)c1C`, 23.7 µM (inactive); to `CC1(c2ccccc2)NC(=O)N(CC(=O)Nc2cccc(/C=C/c3ccccn3)c2)C1=O` (centres undefined), > 79 µM (inactive). With `O=C(Nc1ccccc1)c1nc[nH]c1C(=O)NCCCCNC(=O)c1[nH]cnc1C(=O)Nc1ccccc1`, the IC50 was 6.36 µM. The result for `COc1cc(/C=C(\C#N)c2nc3ccc(C)cc3[nH]2)c([N+](=O)[O-])cc1OC` reads > 79 µM (inactive); that for `COc1cc(-c2cc(C(=O)Nc3cccc(C(C)=O)c3)c3ccccc3n2)cc(OC)c1OC`, 9.9 µM. Regarding `COc1ccc(CCNC(=O)C(=O)NCC2CCCN2S(=O)(=O)c2ccccc2)cc1OC` (centres undefined), the IC50 was 45.9 µM (inactive). On to `COc1cccc(CN(C)C(=O)C(Cc2ccccc2)NC(=O)c2ccccc2)c1OC` (centres undefined), for which the IC50 was > 79 µM (inactive). The result for `COc1cc(-c2cc(NC(C)=O)c3ncc(-c4ccc(F)cc4)n3c2)cc(OC)c1OC` reads > 79 µM (inactive); that for `COc1cc(C(=O)Nc2nc(-c3cccs3)cs2)cc(OC)c1OC`, 16.9 µM; that for `COc1ccc(-c2cc(NC(C)=O)c3ncc(-c4cccc(C(C)=O)c4)n3c2)cc1OC`, > 79 µM (inactive). Take `Cc1ccc(-c2csc(N3CCC[C@@H]3C(=O)NCCn3c(-c4ccncc4)nc4ccccc43)n2)cc1`: the IC50 was > 79 µM (inactive). The result for `O=C(Nc1cccc(NC(=O)c2ccc([N+](=O)[O-])o2)c1)c1ccco1` reads > 79 µM (inactive); that for `O=C(Nc1ccccc1)c1nc[nH]c1C(=O)NCCNC(=O)c1[nH]cnc1C(=O)Nc1ccccc1`, 4.82 µM. The result for `Cc1nn(-c2ccccc2)c(N2CCCC2)c1/C=N/NC(=O)c1cc(-c2ccccn2)nc2ccccc12` reads 19.5 µM; that for `COc1ccc(-c2cc(-c3nnc(COC(=O)C4CC4)o3)c3ccccc3n2)cc1OC`, 62.9 µM (inactive); that for `COc1cccc(Nc2nc(-c3sc(NC(=O)c4ccco4)nc3C)cs2)c1`, 26.4 µM (inactive).

As for `COc1ccc(-c2cc(-c3nnc(COC(=O)C4CC4C)o3)c3ccccc3n2)cc1OC` (centres undefined), the IC50 was > 79 µM (inactive). Regarding `CNC(=O)COC(=O)/C=C/c1cn(-c2ccccc2)nc1-c1ccc(C)o1`, the IC50 was > 79 µM (inactive). To `CC(C)(C)NC(=O)c1cc(NC(=O)c2cccs2)cc(NC(=O)c2cccs2)c1` belongs > 79 µM (inactive). Consider `CN(C(=O)c1sc2nc(N3CCOCC3)c3c(c2c1N)CCCC3)c1ccccc1`, for which the IC50 was > 79 µM (inactive). As for `COc1ccc(-c2csc(NC(=O)c3ccc(OCC(=O)N4CCOCC4)c(OC)c3)n2)cc1OC`, the IC50 was > 79 µM (inactive). For `CCOc1ccc(-n2cc(-c3ccccc3)c3c(N4CCOCC4)ncnc32)cc1`, the 50% inhibitory concentration (IC50) was 7.65 µM.

Consider `Cc1ccccc1N(C(=O)c1snc(C(N)=O)c1N)C(C(=O)NCc1ccccc1)c1ccc(O)cc1` (centres undefined), for which the IC50 was > 79 µM (inactive).

As to `COc1cc(/C=C/C(=O)Nc2ccc3nc4n(c(=O)c3c2)CCCC4)cc(OC)c1OC`, the IC50 is 51.5 µM (inactive). `Cc1ccc(C(C(=O)NCc2ccccc2)N(Cc2ccco2)C(=O)c2snc(C(N)=O)c2N)o1` (centres undefined): the IC50 was 23.9 µM (inactive). As to `COc1ccc(-c2cc3nc(-c4ccccc4)cc(N4CCN(C(C)=O)CC4)n3n2)cc1`, the IC50 was 43.7 µM (inactive). For the compound `CC(=O)Nc1cccc(-c2cc(NC(C)=O)c3ncc(-c4ccccc4)n3c2)c1`, the IC50 was 30.9 µM (inactive).

Turning to `COc1ccc(-c2cnc3c(NC=O)cc(-c4cccc(NS(C)(=O)=O)c4)cn23)cc1OC`, the IC50 is 33.5 µM (inactive).

Take `CCOc1ccc2nc(NC(=O)CN3CCC(n4nnc5cc(F)ccc54)CC3)sc2c1`: the IC50 is 9.48 µM. To `COc1ccccc1N1CCN(C(=O)c2ccc3nc(-c4ccco4)c(-c4ccco4)nc3c2)CC1` belongs 16.4 µM; to `COC(=O)c1cc2ccccn2c2c(C(=O)OC)c(C(=O)OC)cc1-2`, > 79 µM (inactive). With `CCn1nc(C(=O)Nc2nc(-c3ccccn3)cs2)c2ccccc2c1=O`, the IC50 was 13 µM. To `CCOC(=O)C1CCN(c2cc3c(cc2NC(=O)c2ccccc2)n(C)c(=O)n3C)CC1` belongs > 79 µM (inactive). The result for `COc1cc(C(=O)N/N=C/c2ccc(OC(=O)c3cccc(C)c3)c(OC)c2)ccc1O` reads > 79 µM (inactive); that for `COc1ccc(Nc2nnc(SCc3cc(=O)n4ccsc4n3)s2)cc1`, 0.26 µM.

With `Nc1c(C(=O)N/N=C/c2cccnc2)oc2nc(-c3ccccc3)cc(-c3ccco3)c12`, the IC50 was > 79 µM (inactive). For the compound `COc1ccc(-n2cc(-c3ccccc3)c3c(N4CCOCC4)ncnc32)cc1`, the IC50 is 4.4 µM. The result for `C=CC[C@@H](CC(=O)NCCO)C(=O)NC[C@H](OC(=O)[C@@H](CC=C)Cc1ccc(F)cc1)c1ccccc1` reads 42.7 µM (inactive). Regarding `COc1cc(/C=N/NC(=O)c2ccccc2)ccc1OS(=O)(=O)c1ccccc1`, the IC50 was > 79 µM (inactive). The result for `Cc1cc(C)c2c(N)c(C(=O)N/N=C/c3cccnc3)sc2n1` reads > 79 µM (inactive).

Regarding `CCN1C(=O)/C(=C/c2nc3ccccc3c(=O)[nH]2)c2ccccc21`, the IC50 is > 79 µM (inactive).

On to `O=C(CNC(=O)c1nc[nH]c1C(=O)NCC(=O)OCc1ccccc1)OCc1ccccc1`, for which the IC50 is > 79 µM (inactive).

On to `CCOc1ccc(C(C(=O)NCC2CCCO2)N(C(=O)c2snc(C(N)=O)c2N)c2ccccc2F)cc1` (centres undefined), for which the IC50 is 44.3 µM (inactive). The result for `COc1cccc(/C=N/NC(=O)c2oc3nc(-c4ccccc4)cc(-c4ccco4)c3c2N)c1` reads 4.97 µM. On to `COc1cc(C(=O)N/N=C/c2sc(N3CCOCC3)nc2-c2ccccc2)cc(OC)c1OC`, for which the IC50 was 22.6 µM (inactive). In the case of `CCOC(=O)C1CCN(c2cc3c(cc2NC(=O)c2ccccc2Cl)n(C)c(=O)n3C)CC1`, the IC50 was > 79 µM (inactive).
